Results from article PMC10343887, “Structural Optimization of BIPPO Analogs as Potent Antimalarials” (Molecules, 2023).
Read-outs that look alike come from different tables or passages of the source.

Legend:
[1] = Non-specific toxicity control on human MRC-5 cells; type: cell-based
P. falciparum = assay: Antimalarial screening against asexual blood stage P. falciparum; type: cell-based, Plasmodium falciparum; conditions: for IC50: Plasmodium falciparum, potency against asexual blood stage of P. falciparum, average values n ≥ 2, s.d. < 0.3, read-out: P. fal pIC50 (converted); for fold decreased antimalarial potency compared to 3: P. falciparum, relative to 3
Description: Previously, Howard et al. reported (sub)micromolar activity against P. falciparum for a series of BIPPO analogs with benzyl substituents. To further understand the structure–activity relationship (SAR) of this interesting scaffold, close analogs of 3 with substituents at R^1–R^4 positions were tested against P. falciparum and human MRC-5 cells as the control for non-specific toxicity (Table 1).
The assay for antimalarial activity was carried out as described in detail in Pereira et al..

[2] = human MRC-5 cells, average values n ≥ 2, s.d. < 0.3, read-out: MRC-5 pIC50 (converted)

CC(C)c1n[nH]c2c(=O)[nH]cnc12 [compound 18, 3-Isopropyl-1,6-dihydro-7H-pyrazolo[4,3-d]pyrimidin-7-one]
IC50 [1, 2]: > 63.1 µM | IC50 (P. falciparum): > 63.1 µM

O=c1[nH]c(Cc2ccccc2)nc2c(C3CCCC3)n[nH]c12 [46b, 5-Benzyl-3-cyclopentyl-1,6-dihydro-7H-pyrazolo[4,3-d]pyrimidin-7-one]
IC50 [1, 2]: > 63.1 µM | IC50 (P. falciparum): 1.58 µM

CC(C)c1n[nH]c2c(=O)[nH]c(-c3ccc(N4CCCCC4)cc3)nc12 [compound 8, 3-Isopropyl-5-(4-(piperidin-1-yl)phenyl)-1,6-dihydro-7H-pyrazolo[4,3-d]pyrimidin-7-one]
IC50 [1, 2]: > 63.1 µM | IC50 (P. falciparum): > 50.1 µM

CC(C)c1n[nH]c2c(=O)[nH]c(C3(c4ccccc4)CC3)nc12 [compound 16, 3-Isopropyl-5-(1-phenylcyclopropyl)-1,6-dihydro-7H-pyrazolo[4,3-d]pyrimidin-7-one]
IC50 [1, 2]: > 63.1 µM | fold decreased antimalarial potency compared to 3 (P. falciparum): 5- to 25 fold | IC50 (P. falciparum): 3.16 µM

CC(C)c1n[nH]c2c(=O)[nH]c(C3(c4ccccc4)CCC3)nc12 [compound 17, 3-Isopropyl-5-(1-phenylcyclobutyl)-1,6-dihydro-7H-pyrazolo[4,3-d]pyrimidin-7-one]
IC50 [1, 2]: 25.1 µM | IC50 (P. falciparum): 1.58 µM

CC(C)c1n[nH]c2c(=O)[nH]c(C3CCN(C)CC3)nc12 [compound 25, 3-Isopropyl-5-(1-methylpiperidin-4-yl)-1,6-dihydro-7H-pyrazolo[4,3-d]pyrimidin-7-one diformate]
IC50 [1, 2]: > 63.1 µM | IC50 (P. falciparum): > 63.1 µM

CCCCc1nc2c(C(C)C)n[nH]c2c(=O)[nH]1 [compound 21, 5-Butyl-3-isopropyl-1,6-dihydro-7H-pyrazolo[4,3-d]pyrimidin-7-one]
IC50 [1, 2]: > 63.1 µM | IC50 (P. falciparum): 1.26 µM

CC(C)c1nn(C)c2c(=O)[nH]c(Cc3ccccc3)nc12 [37a, 5-Benzyl-3-isopropyl-1-methyl-1,6-dihydro-7H-pyrazolo[4,3-d]pyrimidin-7-one]
IC50 [1, 2]: > 63.1 µM | IC50 (P. falciparum): 10 µM

CC(C)c1n[nH]c2c(=O)[nH]c(C(C)c3ccccc3)nc12 (racemic) [compound 13, (racemic)-3-Isopropyl-5-(1-phenylethyl)-1,6-dihydro-7H-pyrazolo[4,3-d]pyrimidin-7-one]
IC50 [1, 2]: > 63.1 µM | IC50 (P. falciparum): 1.26 µM

CC(C)c1n[nH]c2c(=O)[nH]c(C3CCNCC3)nc12 [compound 32, 3-Isopropyl-5-(piperidin-4-yl)-1,6-dihydro-7H-pyrazolo[4,3-d]pyrimidin-7-one]
IC50 ([1]; human): > 63.1 µM | IC50 (P. falciparum): > 63.1 µM

CC(C)c1n[nH]c2c(=O)[nH]c(C3CCOCC3)nc12 [compound 24, 3-Isopropyl-5-(tetrahydro-2H-pyran-4-yl)-1,6-dihydro-7H-pyrazolo[4,3-d]pyrimidin-7-one]
IC50 [1, 2]: > 63.1 µM | IC50 (P. falciparum): 5.01 µM

CC(C)c1n[nH]c2c(=O)[nH]c(-c3ccc(N4CCN(C)CC4)cc3)nc12 [compound 7, 3-Isopropyl-5-(4-(4-methylpiperazin-1-yl)phenyl)-1,6-dihydro-7H-pyrazolo[4,3-d]pyrimidin-7-one]
IC50 [1, 2]: > 39.8 µM | IC50 (P. falciparum): 7.94 µM

CC(C)c1n[nH]c2c(=O)[nH]c(-c3ccccc3)nc12 [compound 6, 3-Isopropyl-5-phenyl-1,6-dihydro-7H-pyrazolo[4,3-d]pyrimidin-7-one]
IC50 [1, 2]: > 63.1 µM | fold decreased antimalarial potency compared to 3 (P. falciparum): 5- to 25 fold | IC50 (P. falciparum): 31.6 µM

CC(C)c1n[nH]c2c(=O)[nH]c(Cc3ccccc3)nc12 [compound 3, 5-Benzyl-3-isopropyl-1,6-dihydro-7H-pyrazolo[4,3-d]pyrimidin-7-one]
IC50 [1, 2]: > 63.1 µM | IC50 (P. falciparum): 1.26 µM

CC(C)c1n[nH]c2c(=O)[nH]c([C@H]3CC[C@@H](O)CC3)nc12 [compound 26, cis-5-(4-Hydroxycyclohexyl)-3-isopropyl-1,6-dihydro-7H-pyrazolo[4,3-d]pyrimidin-7-one]
IC50 [1, 2]: > 63.1 µM
